{
  "source": "paper PMC4335872",
  "about": "“Pharmacokinetic-Pharmacodynamic Analysis of Spiroindolone Analogs and KAE609 in a Murine Malaria Model” (Antimicrobial Agents and Chemotherapy, 2015)",
  "key": {"[1]": {"experiment": "Mouse plasma protein binding, rapid equilibrium dialysis", "type": "in vitro ADME", "source_text": "(§1) page 5: Running title: PreclinicalPK -PD of antimalarials 73 to high through put form at using in- house standard assa y protocols that are described in the 74 literature. 75 (a)HT-Equilibrium solubilit y at pH 6.8( 1); (b)Parallel Artificial Membrane P ermeability Assa y 76 expressed in % fraction absorbed (FA) ( 2,3 ); (c)Apparent permeability from apical to […] 78 tested; (d)intrinsic clearance in mouse liver micro somes ex pressed as µ L/ min/mg protein, in 79 the presen ce of liver enzym es ( 6); (e)Mous e plasm a protein binding using rapid equilibrium […] 81 82 83 84 85 86 87 88 89 90 91 92 93 94 95 96 97 98 5"}, "[2]": {"system": "P. berghei GFP ANKA malaria strain PbGFPCON", "experiment": "Dose-response efficacy in the P. berghei malaria mouse model", "type": "in vivo, female NMRI mice", "source_text": "All in vivo studies conducted at the Swiss Tropical and Public Health Institute (TPH) adhered to local and national regulations of laboratory animal welfare in Switzerland (permission no. 1731). For in vivo efficacy, female (specific-pathogen-free) […] (NMRI) mice were obtained from Janvier, Le Genest-Saint-Isle, France. Only mice without visible signs of disease were used for the study. Standard laboratory conditions were adopted for husbandry. In vivo antimalarial activity was assessed using groups of five female NMRI mice (20 to 22 g) intravenously infected on day zero with 2 × 10^7 erythrocytes parasitized with P. berghei GFP ANKA malaria strain PbGFPCON (a donation from A. P. Waters and C. J. Janse, Leiden University) ([39]). Untreated control mice typically died between day six and day seven postinfection. Experimental compounds were formulated in 10% ethanol, 30% PEG 400, and 60% of 10% vitamin E TPGS and were administered orally in a volume of 10 ml/kg. Dose-response efficacy studies were conducted for each spiroindolone analog. Doses of 2.5, 5, 10, 30, and 100 mg/kg were administered to groups of 5 mice each as a single dose at 24 h postinfection. Parasitemia, expressed as parasitized red blood cells (pRBCs) of >100 RBCs, was determined 72 h postinfection using standard flow cytometry techniques ([39]).\nData analysis was done using nonlinear mixed-effect modeling (NONMEM version VI 2.0), which analyzed the PD data from multiple dose groups obtained simultaneously from different experiments. Within NONMEM, first-order conditional estimation (FOCE) was the method used ([40]). The log-transformed dose and level of parasitemia were used for analysis. For each compound, a dose-response model was built, and the ED90 (effective dose lowering 90% of parasitemia) values were determined using equation 1 ([41]), where P is the parasitemia measured at any given dose, Pmax is the maximum level of parasitemia, Pmin is the minimum level of parasitemia, EZ50 is the dose required to produce 50% of the maximal effect, s is the Hill slope describing the steepness of the curve, and x is the dose (in mg/kg). 1 P=Pmin +{[Pmax−Pmin]/[1+10^(logEZ50−log x)×s]}"}, "[3]": {"experiment": "Intrinsic clearance in mouse liver microsomes", "type": "in vitro ADME", "conditions": "per mg protein", "source_text": "as §1"}, "[4]": {"system": "P. berghei GFP ANKA PbGFPCON", "experiment": "In vitro (ex vivo) P. berghei maturation assay", "type": "cell-based, Plasmodium berghei", "conditions": "16 h + 8 h incubation; read-out: IC50 (mean ± SD) for P. berghei GFP ANKA PbGFPCON (n = 3)", "description": "For the in vitro (ex vivo) P. berghei maturation assays ([38]), heparinized blood from infected mice (P. berghei GFP ANKA malaria strain PbGFPCON, a donation from A. P. Waters and C. J. Janse, Leiden University, Leiden, the Netherlands) ([39]) was washed with 9 ml of hypoxanthine-free culture medium and diluted with hypoxanthine-free culture medium and red blood cells (RBCs) from uninfected mice to a hematocrit of 5% and a parasitemia of 0.3%. Serial compound dilutions were prepared in DMSO and distributed as described above. The infected erythrocytes (0.3% final parasitemia and 2.5% final hematocrit) were added into the wells. After the plates were incubated for 16 h, 0.25 μCi of [^3H]hypoxanthine was added per well, and the plates were incubated for an additional 8 h. The parasites were harvested, and the in vitro (ex vivo) P. berghei IC50, IC90, and IC99 values were determined as described above."}, "[5]": {"system": "Caco-2 cells", "experiment": "Caco-2 permeability", "type": "in vitro ADME", "conditions": "apical to basolateral", "source_text": "as §1"}, "[6]": {"experiment": "In vivo PK after single p.o. and i.v. dosing in CD-1 mice", "parameters": "species or system female CD-1 mice", "conditions": "CD-1 mice", "description": "The Institutional Animal Care and Use Committee (IACUC) of the Novartis Institute for Tropical Diseases (NITD), registered with the Agri-Food and Veterinary authority (AVA), Government of Singapore, reviewed and approved all animal experimental protocols. […] The mice were allowed to acclimate before the initiation of the experiments. Feed and water were given ad libitum. […] The blood samples from the mice were collected at 0.02 (for i.v. only), 0.08, 0.25, 0.5, 1, 2, 4, 8, 16, and 24 h postdosing. The dose proportionality studies were conducted with KAE609. […] Additional samples were collected at 32 h and 48 h postdose for the 1- and 5-mg/kg dose groups and up to 72 h postdose for the 100-mg/kg dose group. Groups of three mice were used for each time point. Blood was centrifuged at 13,000 rpm for 7 min at 4°C, and plasma was harvested and stored at -20°C until analysis. […] After vortexing and centrifuging the mixture, the supernatant was removed and 5 μl of sample analyzed. Analyte quantitation was performed by high-performance liquid chromatography coupled with tandem mass spectrometry (LC-MS/MS). […] Instrument control and data acquisition were performed using the Applied Biosystems software Analyst 1.4.2. […] Multiple-reaction monitoring (MRM) was combined with optimized MS parameters to maximize detection specificity and sensitivity. The most intense MRM transitions [338.3/295.1 for (+)-1, 370.1/327.0 for (+)-2, 370.0/326.9 for (+)-3, 354.1/310.8 for (+)-4, 354.1/311.2 for (+)-5, 372.1/329.1 for (+)-6, 388.0/331.8 for (+)-7, 372.1/316.1 for (-)-6, and 388/332 for (-)-7] were used for quantitation. Most compounds were analyzed using electrospray ionization in the negative mode, except (+)-1, which was analyzed using positive mode. The recovery of the compounds from plasma was good and consistent across the concentration range studied. The lower limits of quantification for different compounds ranged from 1.3 to 70 ng/ml in plasma. A calibration curve was freshly prepared and analyzed with every set of study samples. Intraday variability was established with triplicate quality control samples at three concentration levels. The results were accepted if relative standard deviation was <15%. The mean values of the compound concentrations in plasma were obtained from three animals at each time point and plotted against time to generate concentration-time profiles. […] The oral bioavailability (F) was calculated as the ratio between the area under the concentration-time curve from 0 to infinity (AUC0-∞) following oral administration and the AUC0-∞ following intravenous administration corrected for dose (F = […].)."}, "[7]": {"system": "P. falciparum NF54", "experiment": "In vitro [3H]hypoxanthine incorporation assay, P. falciparum NF54", "type": "cell-based, Plasmodium falciparum", "conditions": "16 h + 8 h incubation; read-out: IC50 (mean ± SD) for P. falciparum NF54 (n = 3)", "description": "Human erythrocytes served as the host cells. In vitro antimalarial activity was measured using the [^3H]hypoxanthine incorporation assay ([36]) with strain NF54 of P. falciparum (obtained from Hoffmann-LaRoche Ltd.). The compounds were dissolved in dimethyl sulfoxide (DMSO) at a concentration of 10 mM, diluted in hypoxanthine-free culture medium, and titrated in duplicate over a 64-fold range in 96-well plates. […] The parasites were harvested onto glass fiber filters, and radioactivity was measured using a BetaPlate liquid scintillation counter (Wallac, Zurich, Switzerland). All assays were repeated at least three times. The results were recorded and expressed as a percentage of the untreated controls. […] In addition, for the PK-PD analysis of KAE609, an IC99 value was determined by transforming the data from a scintillation counter (Anscombe transformation) to account for Poissonian measurement error. […] Each of the three replicates was performed on a distinct 96-well plate. This has been accounted for in the fitting procedure by means of a Bayesian hierarchical model. The software used for parameter inference was Stan ([37])."}, "[8]": {"experiment": "Parallel artificial membrane permeability assay (PAMPA)", "type": "in vitro ADME", "conditions": "% fraction absorbed", "source_text": "as §1"}, "[9]": {"conditions": "sigmoid dose-response model, single oral doses 24 h postinfection, parasitemia 72 h postinfection"}},
  "data": [
    {"smiles": "C[C@H]1Cc2c([nH]c3ccccc23)[C@@]2(N1)C(=O)Nc1ccc(Cl)cc12", "note": "[(+)-1]", "values": [
      {"measurement": "Mouse PPB", "setting": "[1]", "value": 98.4, "unit": "%"},
      {"measurement": "Hill slope", "setting": "[2]; dose vs parasitemia model", "value": "−3.1"},
      {"measurement": "Pmax (maximum parasitemia)", "setting": "[2]; [9]", "value": 33.11},
      {"measurement": "Pmin (minimum parasitemia)", "setting": "[2]; [9]", "value": 0.03},
      {"measurement": "ED90 (effective dose causing a 90% reduction in parasitemia)", "setting": "[2]; single oral dose 24 h postinfection, parasitemia 72 h postinfection", "value": 15.3, "unit": "mg/kg"},
      {"measurement": "Hepatic CLint in mouse liver microsomes", "setting": "[3]", "value": 770, "unit": "µL/min/mg"},
      {"measurement": "IC50", "setting": "[4]", "value": "242 ± 124", "unit": "nM"},
      {"measurement": "Caco-2 Papp (A-B)", "setting": "[5]", "value": "7.19 10-6 cm/sec"},
      {"measurement": "CL", "setting": "[6]; i.v. 5 mg/kg", "value": 49.7, "unit": "mL/min/kg"},
      {"measurement": "Vss", "setting": "[6]; i.v. 5 mg/kg", "value": 0.9, "unit": "L/kg"},
      {"measurement": "t1/2 (i.v.)", "setting": "[6]; i.v. 5 mg/kg", "value": 24, "unit": "min"},
      {"measurement": "F (oral bioavailability)", "setting": "[6]; oral 25 mg/kg vs i.v. 5 mg/kg", "value": 13, "unit": "%"},
      {"measurement": "AUC0–24", "setting": "[6]; single oral dose 25 mg/kg", "value": 1300, "unit": "ng·h/mL"},
      {"measurement": "Tmax", "setting": "[6]; single oral dose 25 mg/kg", "value": 15, "unit": "min"},
      {"measurement": "t1/2 (oral)", "setting": "[6]; single oral dose 25 mg/kg", "value": 42, "unit": "min"},
      {"measurement": "Cmax", "setting": "[6]; single oral dose 25 mg/kg, plasma", "value": 1200, "unit": "ng/mL"},
      {"measurement": "IC50", "setting": "[7]", "value": "13 ± 2.2", "unit": "nM"},
      {"measurement": "PAMPA %FA", "setting": "[8]", "value": 97, "unit": "%"}
    ]}
  ]
}
